Where a SMILES comes first, the peptide text is derived from it.
Assays:
Assay type in all cases: cell-based
[1] = test system: Yersinia enterocolitica PGS C-1106; experiment: Inhibition zone assay; set-up: key: --: "-" means that no inhibition has been found; settings: * synthetic ApidIa and heattreated immune lymph instead of Bee6 and native immune lymph
[2] = test system: Pseudomonas syringae pv. maculicola NCPPB 1776; experiment: Inhibition zone assay; set-up: key: --: "-" means that no inhibition has been found; settings: * synthetic ApidIa and heattreated immune lymph instead of Bee6 and native immune lymph
[3] = test system: Staphylococcus aureus STA 1; experiment: Inhibition zone assay; set-up: key: --: "-" means that no inhibition has been found; settings: I 10 ul
[4] = test system: Acinetobacter calcoaceticus MON 108; experiment: Inhibition zone assay; set-up: key: --: "-" means that no inhibition has been found
[5] = test system: Erwinia salicis NCPPB 2530; experiment: Inhibition zone assay; set-up: key: --: "-" means that no inhibition has been found; settings: I and B 10 ul, L 5 ug
[6] = test system: Rhizobium phaseoli CIAT 899; experiment: Inhibition zone assay; set-up: key: --: "-" means that no inhibition has been found; settings: I and B 10 ul, L 5 ug
[7] = test system: Streptococci; experiment: Growth-inhibition zone assay
[8] = test system: Pseudomonas syringae pv. tomato NCPPB 1106; experiment: Inhibition zone assay; set-up: key: --: "-" means that no inhibition has been found; settings: * synthetic ApidIa and heattreated immune lymph instead of Bee6 and native immune lymph
[9] = test system: Erwinia carotovora var. carotovora NCPPB 312; experiment: Inhibition zone assay; set-up: key: --: "-" means that no inhibition has been found
[10] = test system: Bacillus subtilis NRRL B-237; experiment: Inhibition zone assay; settings: I and B 10 ul, L 5 ug
[11] = test system: Pseudomonas aureofaciens CCEB 518; experiment: Inhibition zone assay; set-up: key: --: "-" means that no inhibition has been found; settings: I and B 10 ul, L 5 ug
[12] = test system: Haemophilus influenzae NCTC 8465; experiment: Inhibition zone assay; set-up: key: --: "-" means that no inhibition has been found; settings: I 10 ul
[13] = test system: Bacillus cereus LMG 2098; experiment: Inhibition zone assay; set-up: key: --: "-" means that no inhibition has been found
[14] = test system: Rhizobium meliloti ZB 314; experiment: Inhibition zone assay; settings: I and B 10 ul, L 5 ug
[15] = test system: Azospirillum lipoferum ATCC 29707; experiment: Inhibition zone assay; set-up: key: --: "-" means that no inhibition has been found; settings: I and B 10 ul, L 5 ug
[16] = test system: Azospirillum brasilliense ATCC 29145; experiment: Inhibition zone assay; set-up: key: --: "-" means that no inhibition has been found
[17] = test system: Pseudomonas aeruginosa ATCC 7700; experiment: Inhibition zone assay; set-up: key: --: "-" means that no inhibition has been found
[18] = test system: Serratia marcescens ATCC 17991; experiment: Inhibition zone assay; set-up: key: --: "-" means that no inhibition has been found
[19] = test system: Streptococcus pyogenes NCTC 8193; experiment: Inhibition zone assay; set-up: key: --: "-" means that no inhibition has been found; settings: I 10 ul
[20] = test system: Serratia fonticola ATCC 298449; experiment: Inhibition zone assay; settings: I and B 10 ul, L 5 ug
[21] = test system: Micrococcus lysodeikticus LMG 4050; experiment: Inhibition zone assay; set-up: key: --: "-" means that no inhibition has been found; settings: I and B 10 ul, L 5 ug
[22] = test system: Corynebacterium diphteriae HB 11 t1; experiment: Inhibition zone assay; set-up: key: --: "-" means that no inhibition has been found; settings: I 10 ul
[23] = test system: Enterobacter agglomerans ICPB 3423; experiment: Inhibition zone assay; set-up: key: --: "-" means that no inhibition has been found
[24] = test system: Salmonella Wien 83/16; experiment: Inhibition zone assay; set-up: key: --: "-" means that no inhibition has been found; settings: I and B 10 ul
[25] = test system: Salmonella typhimurium ATCC 23565; experiment: Inhibition zone assay; set-up: key: --: "-" means that no inhibition has been found
[26] = test system: Xanthomonas maltophilia JCM1977; experiment: Inhibition zone assay; set-up: key: --: "-" means that no inhibition has been found; settings: Xanthomonas maltophilia JCM1977 (Tables 2 and 3)
[27] = test system: Alcalienes denitrificans ATCC 15173; experiment: Inhibition zone assay; set-up: key: --: "-" means that no inhibition has been found
[28] = test system: Xanthomonas campestris pv. oryzae IRN 235; set-up: key: --: "-" means that no inhibition has been found
[29] = test system: Listeria monocytogenes B5; experiment: Inhibition zone assay; set-up: key: --: "-" means that no inhibition has been found; settings: L 5 ug
[30] = test system: Lactobacillus acidophilus ATCC 4336; experiment: Inhibition zone assay; set-up: key: --: "-" means that no inhibition has been found; settings: I 10 ul
[31] = test system: Xanthomonas campestris pv. vesicatoria XV82-4; experiment: Inhibition zone assay; set-up: key: --: "-" means that no inhibition has been found; settings: I and B 10 ul, L 5 ug
[32] = test system: D. hansenii; experiment: Growth-inhibition zone assay, first screening
Description: (§1) Whole lymph or purified components, resuspended in PBS to a final volume equal to the starting material (heated lymph), was applied in 3 mm wells on agar plates seeded with the test organisms. Antibacterial activity was determined by measuring the growth-inhibition zones (in mm).

[33] = test system: S. cerevisiae; experiment: Growth-inhibition zone assay, first screening
Description: as §1

[34] = test system: Enterobacter cloacae BE 97; experiment: Inhibition zone assay; set-up: key: --: "-" means that no inhibition has been found; settings: I and B 10 ul
[35] = test system: Salmonella Montevideo 80/141; experiment: Inhibition zone assay; set-up: key: --: "-" means that no inhibition has been found; settings: I and B 10 ul
[36] = test system: Salmonella typhimurium NCTC 74; experiment: Inhibition zone assay; set-up: key: --: "-" means that no inhibition has been found; settings: I and B 10 ul

CC[C@H](C)[C@H](NC(=O)[C@H](CCCCN)NC(=O)[C@@H]1CCCN1C(=O)[C@H](CC(N)=O)NC(=O)[C@H](Cc1ccccc1)NC(=O)[C@@H]1CCCN1C(=O)CNC(=O)[C@H](CCC(N)=O)NC(=O)CNC(=O)[C@@H]1CCCN1C(=O)[C@H](Cc1ccccc1)NC(=O)[C@@H](NC(=O)[C@@H]1CCCN1C(=O)[C@H](Cc1ccccc1)NC(=O)[C@@H]1CCCN1C(=O)[C@H](CCCNC(=N)N)NC(=O)[C@H](CCCNC(=N)N)NC(=O)CNC(=O)[C@@H]1CCCN1C(=O)[C@H](CCC(N)=O)NC(=O)[C@@H]1CCCN1C(=O)[C@@H](NC(=O)[C@H](CC(N)=O)NC(=O)[C@@H]1CCCN1C(=O)[C@H](CC(C)C)NC(=O)[C@@H]1CCCN1C(=O)[C@@H](NC(=O)[C@@H](N)Cc1ccc(O)cc1)C(C)C)C(C)C)[C@@H](C)O)C(=O)N[C@@H](CCCCN)C(=O)N[C@@H](Cc1c[nH]c2ccccc12)C(=O)N1CCC[C@H]1C(=O)N[C@@H](CCC(N)=O)C(=O)NCC(=O)N[C@@H](Cc1ccc(O)cc1)C(=O)O [bee 9] (H-YVPLPNVPQPGRRPFPTFPGQGPFNPKIKWPQGY-OH)
diameter of growth-inhibition zone [1]: --
diameter of growth-inhibition zone [2]: --
diameter of growth-inhibition zone [3]: --
diameter of growth-inhibition zone [4]: --
diameter of growth-inhibition zone [5]: --
diameter of growth-inhibition zone [6]: --
susceptibility, in words [7]: resistant
diameter of growth-inhibition zone [8]: --
diameter of growth-inhibition zone [9]: --
diameter of growth-inhibition zone [10]: 4 mm
diameter of growth-inhibition zone [11]: --
diameter of growth-inhibition zone [12]: --
diameter of growth-inhibition zone [13]: --
diameter of growth-inhibition zone [14]: 4 mm
diameter of growth-inhibition zone [15]: --
diameter of growth-inhibition zone [16]: --
diameter of growth-inhibition zone [17]: --
diameter of growth-inhibition zone [18]: --
diameter of growth-inhibition zone [19]: --
diameter of growth-inhibition zone [20]: 9 mm
diameter of growth-inhibition zone [21]: --
diameter of growth-inhibition zone [22]: --
diameter of growth-inhibition zone [23]: --
diameter of growth-inhibition zone [24]: --
diameter of growth-inhibition zone [25]: --
diameter of growth-inhibition zone [26]: --
diameter of growth-inhibition zone [27]: --
diameter of growth-inhibition zone [28]: --
diameter of growth-inhibition zone [29]: --
diameter of growth-inhibition zone [30]: --
diameter of growth-inhibition zone [31]: --
susceptibility of eucaryote strain [32]: resistant
susceptibility of eucaryote strain [33]: resistant
diameter of growth-inhibition zone [34]: --
diameter of growth-inhibition zone [35]: --
diameter of growth-inhibition zone [36]: --
